Test [1] addresses T1, 5-HT6 receptor (Homo sapiens (Human), UniProt P50406). The test is described as follows: functional assay for serotonin 5-HT6 receptor inhibition (serotonin-induced intracellular cAMP, LANCE cAMP kit, HEK 293 cells). The test is classed as cell-based. The following applies: HEK 293 cells with expressed 5-HT6 receptor; reduction of serotonin-induced intracellular cAMP. On the procedure:
Determination of antagonistic activity of compounds of the general formula 1 towards 5-HT6 receptors. Compounds of the general formula 1 were tested for their ability to prevent 5-HT6 receptors activation by serotonin. HEK 293 cells (cells of human embryo's kidney) with artificially expressed 5-HT6 receptor, activation of which by serotonin leads to increasing the concentration of intracellular cAMP, were used. The level of intracellular cAMP was determined using reagent kit LANCE cAMP (PerkinElmer) according to the method described by the manufacturer of the kit [http://las.perkinelmer.com/content/Manuals/MAN_LANCEcAMP384KitUser.pdf]. Effectiveness of the compounds was estimated by their ability to reduce the level of intracellular cAMP induced by serotonin. Table 4 presents IC50 values for the compounds of general formula 1 in the setting of functional assay for serotonin 5-HT6 receptor inhibition. The data given testify their moderate or high antagonistic activity.
(In general: In TR-FRET formats the signal depends on donor and acceptor labels being close together.)

The test system of another test is mice. In words: Passive avoidance in the shuttle chamber, amnesia caused by MK-801, mice. The format is in vivo, mouse. The following applies: MK-801 0.1 mg/kg i.p., compounds injected 30 minutes before the test, FIG. 11-13. On the procedure: (§1) A shuttle chamber (Ugo Basile, Italy) that consisted of two sections was used. One section was white and lightened, the other one was dark. The sections were connected through a hole which could be overlapped by automatic vertical door. The floor of the dark section was made of transverse metal bars on which DC current impulses could be fed.
(§2) On the first day of testing 30 minutes before training the animals were injected intraperitoneally with Scopolamine which causes disturbance of training (memory loss). The animals of the trial group were additionally administered with one of the tested compounds. The animals of the control group were injected with physiological solution. Each group consisted of 8 animals. The animals were placed in the light section, and latent period of the first entry into the dark chamber was registered. Then vertical door was closed and the animal was punished by 0.6 mA DC current for 3 seconds. After that the animal was taken back to its home cage. In 22-24 hours the same animal was placed again in the light section of the shuttle chamber and latent period of its first entry into the dark section, the total time of its stay in the light section and the number of entries into the dark section were registered. Each monitoring lasted for 5 minutes.
14.2.1. Passive Avoidance of mice in the Shuttle Chamber. The test was carried out as in example 14.1.1. […]

The subject of test [2] is male mice of BALB/c line. In words: Mice Behavior in the Elevated Plus Maze. The format is in vivo, mouse. To be noted: tested compounds i.p.; FIG. 14-16. On the procedure:
Anxiolytic activity of compounds 1.1(11), 1.2.7(1), 1.2.6(1), 1.2.3(1), 1.2.11(1), 1.2.22(1), 1.2.22(18) in test “Mice Behavior in the Elevated Plus Maze”. The experiments were carried out in aged male mice of BALB/c line weighing about 25 g. The animals were housed 5-7 per cage with water and food available. None of the animals was acquainted with the experimental set-up before. Each experimental group included 8 animals.
The procedure used was described earlier by Lister (Lister R. G. The use of a plus-maze to measure anxiety in the mouse. Psychopharmacology, 1987; 92:180-185). Plexiglass set-up consisted of two opened arms of 30×5 cm size and two closed arms of 30×5×15 cm size. Side arms were closed with transparent plexiglass and were connected with the central zone via a platform of 5×5 cm size. The opened arms, central platform and floor were made of black plexiglass. The set-up was mounted on a metallic base which was placed 38.5 cm above the floor level.
The animals were injected intraperitoneally with placebo, Buspirone (5 mg/kg, 30 minutes before training), Lorazepam (0.05 mg/kg, 60 minutes before training) or with one of the tested compounds 1.1(11), 1.2.7(1), 1.2.6(1), 1.2.3(1), 1.2.11(1), 1.2.22(1), 1.2.22(18). Buspirone and Lorazepam were introduced in a maximal effective dose, at which side sedative effect and general decrease of exploratory activity (the number of arm entries during the test) were not observed yet.
Each mouse was placed in the maze center with its head towards the opened arm. Over a period of 5 minutes the sequence and duration of arm entries were registered by means of a computer program. Criterion for entry is a location of all animal's paws inside the arm at the same time. The index of preference was calculated as a ratio of the time spent by the animal in the opened arms as well as the number of entries into the opened arms to the total time spent by it in the opened and closed arms or, respectively, to the whole number of entries to the arms of both types. The number of defecations left by a mouse was regarded as an additional parameter characterizing the anxiety state. Being in normal state the animals usually avoid open arms (the preference index is between 0.2 and 0.3).

A further test deals with rats. The test is described as follows: Passive avoidance in the shuttle chamber, amnesia caused by MK-801, rats. The test is classed as in vivo, rat. To be noted: MK-801 0.1 mg/kg i.p., compounds injected 60 minutes before the test, FIG. 8-10.
The test system of another test is Mice of SHK line. In words: Prepulse inhibition of the startle response in mice (Apomorphine model). The test is classed as in vivo, mouse. To be noted: 1 mg/kg i.p. 60 minutes before the test; FIG. 17. On the procedure: Mice of SHK line weighing about 24-30 g were used in the test. The experiments were carried out during the light period of animal's diurnal. Apomorphine hydrochloride and Haloperidol were received from Sigma Chemicals Company, (USA). Apomorphine hydrochloride was dissolved in 0.1% solution of ascorbic acid prepared with sterilized water; it was introduced subcutaneously 15 minutes before the test. Haloperidol was dissolved in sterilized water using emulsifier Twin 80, it was introduced intraperitoneally 60 minutes before the test. Compounds 1.2.22(1), 1.2.22(18), 1.2.7(1) were dissolved in sterilized water and introduced intraperitoneally 60 minutes before the test. The injection volume was 10 ml/kg. 0.1%. Solution of ascorbic acid, prepared with sterilized water and Twin 80, was injected to control group of animals.
The test instrument consisted of a chamber made of transparent plexiglass (manufacturer—Columbia Instruments Company, USA) and placed on the platform; the latter was lodged inside the sound insulating chamber. A high frequency sound column transmitting acoustic stimuluses was located 2 cm away from the platform. […] The level of background noise made up 65 dB. Each animal received 4 stimuli of single testing (pulse) stimulus of 50 ms duration and 105 dB or prepulsory stimulus (pre-pulse) of 20 ms duration and 85 dB, after which in 30 ms pulse stimulus of 50 ms duration and 105 dB followed. Time interval between repeated pulse or prepulse in combination with pulse stimuli made up 10 s. Inhibition of the startle in reply to prepulse-plus-pulse stimulus was calculated in percentage towards amplitude of startle in response to isolated pulse stimulus.

In another test the test system is male mice of SHK line. In words: Novel object recognition test, Scopolamine amnesia model. The format is in vivo, mouse. The following applies: Scopolamine 1 mg/kg i.p.; compounds i.p. 60 minutes before training; FIG. 7. On the procedure: 14.1.2. Novel object recognition test. The test was carried out in aged male mice of SHK line. […] A mouse was placed into the central chamber and allowed to explore the maze. The floor was cleaned after each animal. The sequence of chamber entries and duration of visits were registered by the observer. The test was ended after 13 entries into the dead-end chambers. Criterion for entry was a location of all animal's paws inside the chamber at the same time.
During the training the animal was placed in the maze with one equiform bowl in each side chamber. In the course of testing (one hour after training) two opposite standing bowls were replaced by identical flasks, and the animal was allowed to explore the maze. The time spent by the animal in each side chamber was registered during the periods of training and testing. Index of novel object recognition was calculated as the ratio of time spent by the animal in the side chambers with novel objects to the total time spent by it in all side chambers.

In the next test the test system is male rats. In words: Passive avoidance in the shuttle chamber, Scopolamine amnesia model, rats. The test is classed as in vivo, rat. To be noted: compounds injected 60 minutes before the test, read 24 hours after training, FIG. 1-3. On the procedure:
(§3) 14.1.1. Passive Avoidance of mice in the Shuttle Chamber. The experiments were carried out in aged male mice of BALB/c line weighing 20-24 g or male rats weighing 200-250 g.
as §1
as §2, with “In 22-24 hours the same animal was placed again in the light section of the shuttle chamber and latent period of its first entry into the dark section, the total time of its stay in the light section and the number of entries into the dark section were registered. Each monitoring lasted for 5 minutes.” left out

Test [3] relates to male mice of BALB/c line. The test is described as follows: Tail suspension test. The format is in vivo, mouse. To be noted: i.p. during 4 days; FIG. 19. An excerpt: 17.2. Mice behavior in tail suspension test. Tail suspension test was described by Steri et al. (1985) as a convenient method for investigation of potential antidepressants. It is supposed that forced immobility in rodents could be used as a model for investigation of depressive disorders at humans. Clinically effective antidepressants lower mice immobility which follows negative attempts to become free when their tails are fixed.
Male mice of BALB/c line weighing about 20-30 g were used in the test. The animals were suspended by tail with a sticky tape on the holder over a horizontal surface at a height of about 40 cm, and the total duration of complete immobility episodes was registered in the course of 3 minutes. […] Automated computerized detection of motion with videosystem and Any-maze program were used in the test. The tested compounds 1.2.7(1) and 1.2.22(18) were administered intraperitoneally during 4 days. Reference substances (Fluoxetine, Desipramine) were injected intraperitoneally 15 minutes before the beginning of the test.

The subject of test [4] is male mice of BALB/c line. The test is described as follows: Porsolt's Forced Swim Test. To be noted: i.p. for 4 days subchronically; FIG. 18. The test is classed as in vivo, mouse. On the procedure: 17.1. Mice Behavior in Porsolt's Forced Swim Test. Expression of behavioral despair was offered to use as a model for investigation of antidepressant activity in Porsolt's test (1977, 1978). That is, the behavior of a mouse or rat in a closed basin, from which the animal can not get out, cheracterizes the level of its despair which could be reduced by means of antidepressant intake.
Male mice of BALB/c line weighing about 20-30 g were used in the test. The animals were placed for 15 minutes in the basin (of 300 mm height, 480 mm diameter) filled with water to 70% of its volume at 25° C. In 3-5 minutes swimming activity began to decrease and change by phases of movement and immobility. […] Data for the last 5 minutes of the test were taken for the analysis. Automated computerized detection of motion with videosystem and Any-maze program were used in the test. The tested compounds 1.2.7(1) and 1.2.22(18) were injected intraperitonelly for 4 days subchronically.

In test [5] the target is T1, 5-HT6 receptor. In words: competitive radioligand binding ([3H] Lysergic acid diethylamide) to serotonin 5-HT6 receptors, HeLa cell membranes. To be noted: read-out: IC50, competitive assay of serotonin 5-HT6 receptor inhibition; displacement of 1.5 nM [3H] Lysergic acid diethylamide, 120 min at 37° C.
Protocol: Determination of activity of the compounds of the general formula 1 in the setting of competitive binding to serotonin 5-HT6 receptors.
Screening of the disclosed compounds for their potential ability to interact with serotonin 5-HT6 receptors was carried out by method of radioligand binding. For this purpose membrane species were prepared from expressing recombinant human 5-HT6 receptors HeLa cells by means of their homogenization in glass homogenizer with subsequent separation of plasmatic membranes from cell nucli, mitochondria's and cell wreckages by differential centrifugation. Determination of tested compounds binding to 5-HT6 receptors was carried out according to the method described in [Monsma F J Jr, Shen Y, Ward R P, Hamblin M W and Sibley D R, Cloning and expression of a novel serotonin receptor with high affinity for tricyclic psychotropic drugs. […] After incubation the samples were filtered in vacuo on glass-microfiber filters G/F (Millipor, USA), filters were washed three times with cold solution of the medium and radioactivity was measured by scintillation counter MicroBeta 340 (PerkinElmer, USA). Nonspecific binding which made up 30% of overall binding was determined by incubation of membrane preparations with radioligand in the presence of 5 μM Serotonin (5-HT). Methiothepin was used as positive control. Binding of the tested compounds to the receptor was determined by their ability to displace the radioligand and expressed in percent of displacement. The percent of displacement was calculated according to the following equation:
[formula] wherein: TA—was overall radioactivity in the presence of radioligand only, CA—was radioactivity in the presence of radioligand and tested compound and NA—was radioactivity in the presence of radioligand and Serotonin (5 μM).
Test [6] relates to male mice of BALB/c line. In words: Passive avoidance in the shuttle chamber, Scopolamine amnesia model, mice. The test is classed as in vivo, mouse. To be noted: compounds injected 30 minutes before the test, read 24 hours after training, FIG. 4-6. On the procedure: as §3, §1
as §2, with “In 22-24 hours the same animal was placed again in the light section of the shuttle chamber and latent period of its first entry into the dark section, the total time of its stay in the light section and the number of entries into the dark section were registered. Each monitoring lasted for 5 minutes.” left out

T1 sequence (P50406 whole entry): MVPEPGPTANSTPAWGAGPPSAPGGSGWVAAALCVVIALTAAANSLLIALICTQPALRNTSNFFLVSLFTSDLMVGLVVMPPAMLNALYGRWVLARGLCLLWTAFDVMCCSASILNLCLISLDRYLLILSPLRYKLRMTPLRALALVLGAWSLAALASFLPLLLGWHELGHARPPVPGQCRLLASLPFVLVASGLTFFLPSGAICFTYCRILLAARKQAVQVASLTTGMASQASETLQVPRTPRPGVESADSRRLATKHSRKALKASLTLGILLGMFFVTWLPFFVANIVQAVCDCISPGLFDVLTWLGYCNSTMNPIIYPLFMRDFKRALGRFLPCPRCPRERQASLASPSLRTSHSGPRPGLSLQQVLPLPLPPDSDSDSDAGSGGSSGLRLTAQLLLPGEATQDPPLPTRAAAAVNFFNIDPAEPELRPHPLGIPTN

For the molecule `CSc1nn2c(C)cc(CO)nc2c1S(=O)(=O)c1ccccc1` [1.1.7(1), 5-(hydroxymethyl)-7-methyl-2-methylsulfanyl-3-phenylsulfonyl-pyrazolo[1,5-a]pyrimidine], the IC50 on 5-HT6 receptor [1] is 177 nM. Further, the “effect on amnesia caused by MK-801 (latent period, light arm stay, dark arm entries)” value in the test with mice was “decrease amnesia caused by MK-801”.
For `CNc1nn2c(C)c(N(C)C)c(C)nc2c1S(=O)(=O)c1ccccc1` [1.2.22(18)], the “anxiolytic activity in the elevated plus maze” value in the test on male mice of BALB/c line [2] is recorded as “anxiolytic activity analogous to the activity of control compounds”. In the test with rats, the “effect on amnesia caused by MK-801 (latent period, light arm stay, dark arm entries)” value is listed as “decrease amnesia caused by MK-801”. Further, the “effect on Apomorphine-disturbed prepulse inhibition of startle” value in the test on Mice of SHK line was “prevented disturbance of prepulse inhibition of startle caused by Apomorphine”. The “prevention of Scopolamine-disturbed novel object recognition” value in the test with male mice of SHK line is “prevent memory impairment caused by Scopolamine”. Moreover, the “effect on amnesia caused by Scopolamine (latent period, light arm stay, dark arm entries)” value (“effect on amnesia caused by Scopolamine” for short) in the test with male rats is given as “decrease amnesia”.
As to `CNc1nn2c(C)cc(CO)nc2c1S(=O)(=O)c1ccccc1` [1.2.7(1), 5-(hydroxymethyl)-7-methyl-2-methylamino-3-phenylsulfonyl-pyrazolo[1,5-a]pyrimidine], the “antidepressant activity, immobility in tail suspension test” value in the test on male mice of BALB/c line [3] is “antidepressant activity comparable with the activity of Fluoxetine and Desipramine”. The IC50 at 5-HT6 receptor [1] worked out at 19 nM; at 5-HT6 receptor [5], 0.88 nM. Further, in the test with rats, the “effect on amnesia caused by MK-801 (latent period, light arm stay, dark arm entries)” value is “decrease amnesia caused by MK-801”. Moreover, the “antidepressant activity, immobility during the final 5 minutes in Porsolt's test” value in the test with male mice of BALB/c line [4] was “exhibits antidepressant activity”. For the same molecule, in the test on Mice of SHK line, the “effect on Apomorphine-disturbed prepulse inhibition of startle” value was “prevented disturbance of prepulse inhibition of startle caused by Apomorphine”. In addition, the “prevention of Scopolamine-disturbed novel object recognition” value in the test with male mice of SHK line is on record as “prevent memory impairment caused by Scopolamine”. In the test with male rats, the “effect on amnesia caused by Scopolamine” value is listed as “decrease amnesia”.
In the case of `Cc1cc(C)n2nc([S+](C)[O-])c(S(=O)(=O)c3ccccc3)c2n1` (centres unmarked) [1(1)], the “effect on amnesia caused by Scopolamine” value in the test with male mice of BALB/c line [6] is “decrease amnesia”. Besides, the “effect on amnesia caused by MK-801 (latent period, light arm stay, dark arm entries)” value with mice is reported as “decrease amnesia caused by MK-801”.

As a reminder, the IC50 is the concentration needed to halve the response being measured.

The record behind these values is patent US8618114B2 (priority 2008, dated 2013).
